What was measured:
P2X4 [1] = molecular target: T1, P2X4 (Homo sapiens, UniProt Q99571); assay: Assay A: human P2X4 receptor cell line, FLIPR calcium assay (Fluo-8, agonist Bz-ATP at EC80); type: cell-based; set-up: host or cells: HEK 293 (recombinant, constitutively expressing; with mitochondrial photina in Assay B); conditions: HEK human P2X4 cells, Fluo-8 FLIPR; for Emax: percentage of maximal inhibition, read-out: human P2X4 Assay A avg Efficacy; for IC50: Bz-ATP at EC80, average values
T1 sequence (Q99571 1-388): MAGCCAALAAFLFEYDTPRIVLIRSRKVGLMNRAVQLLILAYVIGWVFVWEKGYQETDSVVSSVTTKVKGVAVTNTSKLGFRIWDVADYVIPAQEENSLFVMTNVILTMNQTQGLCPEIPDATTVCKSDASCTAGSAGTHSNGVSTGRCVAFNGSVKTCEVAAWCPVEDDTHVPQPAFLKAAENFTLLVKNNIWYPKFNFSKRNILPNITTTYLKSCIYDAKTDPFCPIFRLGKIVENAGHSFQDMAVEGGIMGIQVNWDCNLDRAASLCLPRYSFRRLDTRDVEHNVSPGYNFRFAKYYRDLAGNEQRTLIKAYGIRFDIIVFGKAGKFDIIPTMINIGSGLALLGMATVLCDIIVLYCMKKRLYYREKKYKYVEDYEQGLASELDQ
How it was run: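 HEK cells expressing human P2X4 (20,000/well, plated ~20 h earlier) loaded 30 min with 5 μM Fluo-8 in HBSS/HEPES buffer with 1.8 mM CaCl2, 1 mM MgCl2, 2 mM probenecid, pH 7.4. Antagonist preincubated 30 min at room temperature (0.5% DMSO), then Bz-ATP at EC80. Peak fluorescence over 120 s, normalized to DMSO; triplicate IC50 and Hill fits.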

P2X4 [2] = molecular target: T1, P2X4; assay: Assay B: human P2X4 receptor cell line, mitochondrial photina luminescence (agonist Bz-ATP at EC50); type: cell-based; set-up: host or cells: HEK 293 (recombinant, constitutively expressing; with mitochondrial photina in Assay B); conditions: HEK human P2X4 cell line, photina luminescence, agonist Bz-ATP at EC50, average; for Emax: read-out: human P2X4 Assay B avg Efficacy
How it was run: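 Recombinant cell line constitutively expressing human P2X4 and mitochondrial photina photoprotein, reconstituted with coelenterazine. Receptor stimulated with Bz-ATP at EC50; calcium influx read immediately as luminescence.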

Row | Emax (P2X4 [1]) | Emax (P2X4 [2]) | IC50 (P2X4 [1]) | IC50 (P2X4 [2]) | SMILES
1 | 87% | 80% |  |  | NS(=O)(=O)c1cc(NC(=O)Cc2cccc(F)c2Cl)ccc1OCC1CCOCC1 [Example 167, 2-(2-Chloro-3-fluorophenyl)-N-[3-sulfamoyl-4-(tetrahydro-2H-pyran-4-ylmethoxy)phenyl]acetamide]
2 | 90% | 85% | 86 nM | 181 nM | NS(=O)(=O)c1cc(NC(=O)Cc2ccccc2Cl)cnc1Oc1cccc(C(F)(F)F)c1 [Example 168, 2-(2-chlorophenyl)-N-{5-sulfamoyl-6-[3-(trifluoromethyl)phenoxy]pyridin-3-yl}acetamide]
3 | 74% | 75% | 274 nM | 1030 nM | NS(=O)(=O)c1cc(NC(=O)Cc2ccccc2)cnc1Oc1cccc(C(F)(F)F)c1 [Example 169, 2-Phenyl-N-{5-sulfamoyl-6-[3-(trifluoromethyl)phenoxy]pyridin-3-yl}acetamide]
4 | 100% | 92% |  |  | NS(=O)(=O)c1cc(NC(=O)Cc2ccccc2Cl)ccc1Oc1cccc(N2CCOCC2=O)c1 [Example 173, 2-(2-Chlorophenyl)-N-{4-[3-(3-oxomorpholin-4-yl)phenoxy]-3-sulfamoylphenyl}acetamide]
5 | 74% | 64% |  |  | NS(=O)(=O)c1cc(NC(=O)Cc2ccccc2Cl)ccc1Oc1ccc(N2CCOCC2=O)cc1 [Example 174, 2-(2-Chlorophenyl)-N-{4-[4-(3-oxomorpholin-4-yl)phenoxy]-3-sulfamoylphenyl}acetamide]
6 | 52% | 67% | 1300 nM | 15000 nM | NS(=O)(=O)c1cc(NC(=O)Cc2ccccc2Cl)ccc1Oc1ccc(N2CCCCC2=O)cc1 [Example 175, 2-(2-Chlorophenyl)-N-{4-[4-(2-oxopiperidin-1-yl)phenoxy]-3-sulfamoylphenyl}acetamide]
7 | 82% | 53% | 459 nM | 880 nM | NS(=O)(=O)c1cc(NC(=O)Cc2ccccc2Cl)ccc1Oc1cccc(N2CCCCC2=O)c1 [Example 176, 2-(2-Chlorophenyl)-N-{4-[3-(2-oxopiperidin-1-yl)phenoxy]-3-sulfamoylphenyl}acetamide]
8 | 80% | 69% | 265 nM | 970 nM | C=C(C)c1cccc(Oc2ccc(NC(=O)Cc3ccccc3Cl)cc2S(N)(=O)=O)c1 [Example 177, 2-(2-Chlorophenyl)-N-{4-[3-(prop-1-en-2-yl)phenoxy]-3-sulfamoylphenyl}acetamide]
9 | 76% | 56% | 392 nM | 490 nM | C=C(C)c1ccccc1Oc1ccc(NC(=O)Cc2ccccc2Cl)cc1S(N)(=O)=O [Example 178, 2-(2-Chlorophenyl)-N-{4-[2-(prop-1-en-2-yl)phenoxy]-3-sulfamoylphenyl}acetamide]
10 | 69% | 65% |  |  | Cc1ccc(CC(=O)Nc2ccc(Oc3cccc(Cl)c3)c(S(N)(=O)=O)c2)cc1 [Example 179, N-[4-(3-Chlorophenoxy)-3-sulfamoylphenyl]-2-(4-methylphenyl)acetamide]
11 | 76% | 63% |  |  | NS(=O)(=O)c1cc(NC(=O)Cc2ccc(Cl)cc2)ccc1Oc1cccc(Cl)c1 [Example 180, N-[4-(3-Chlorophenoxy)-3-sulfamoylphenyl]-2-(4-chlorophenyl)acetamide]
12 | 85% | 72% | 50 nM | 149 nM | COc1cccc(CC(=O)Nc2ccc(Oc3cccc(Cl)c3)c(S(N)(=O)=O)c2)c1 [Example 191, N-[4-(3-Chlorophenoxy)-3-sulfamoylphenyl]-2-(3-methoxyphenyl)acetamide]
13 | 86% | 68% |  |  | COc1ccccc1CC(=O)Nc1ccc(Oc2cccc(Cl)c2)c(S(N)(=O)=O)c1 [Example 192, N-[4-(3-Chlorophenoxy)-3-sulfamoylphenyl]-2-(2-methoxyphenyl)acetamide]

Reference: patent publication US20180338980A1, “AROMATIC SULFONAMIDE DERIVATIVES” (BAYER PHARMA AKTIENGESELLSCHAFT, priority 2015, published 2018)
